Reference: PubChem BioAssay (NCI)
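Following 48 hours of exposure in 96-well plates, responses at five concentrations were used to interpolate endpoints linearly. Definition used: TGI = concentration required for complete inhibition of growth.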

How the values were obtained:
Experiment in all cases: NCI tumour cell line growth inhibition, 48 h
[1] = system: K-562 leukemia
[2] = system: UACC-62 melanoma
[3] = system: NCI-H226 lung
[4] = system: CCRF-CEM leukemia
[5] = system: UO-31 renal
[6] = system: NCI-H522 lung
[7] = system: T-47D breast
[8] = system: HOP-92 NSCLC
[9] = system: PC-3 prostate
[10] = system: OVCAR-3 ovarian
[11] = system: SF-295 CNS
[12] = system: SK-OV-3 ovarian
[13] = system: SF-539 CNS
[14] = system: NCI/ADR-RES ovarian
[15] = system: A498 renal
[16] = system: SNB-19 CNS
[17] = system: MALME-3M melanoma
[18] = system: MDA-MB-231 breast
[19] = system: KM20L2 colon
[20] = system: DMS 273 small cell lung

| SMILES | TGI [1] | TGI [2] | TGI [3] | TGI [4] | TGI [5] | TGI [6] | TGI [7] | TGI [8] | TGI [9] | TGI [10] | TGI [11] | TGI [12] | TGI [13] | TGI [14] | TGI [15] | TGI [16] | TGI [17] | TGI [18] | TGI [19] | TGI [20] |
| --- | --- | --- | --- | --- | --- | --- | --- | --- | --- | --- | --- | --- | --- | --- | --- | --- | --- | --- | --- | --- |
| O=C(CCCn1cnc([N+](=O)[O-])n1)NCCn1ccnc1[N+](=O)[O-] | > 100 µM | > 100 µM | > 100 µM | > 100 µM | > 100 µM | > 100 µM | > 100 µM | > 100 µM | > 100 µM | > 100 µM | > 100 µM | > 100 µM | – | – | – | – | – | – | – | – |
| O=C(Nc1ccccc1F)c1c(O)nc2sccn2c1=O | – | > 10 µM | > 10 µM | > 10 µM | > 10 µM | > 10 µM | > 10 µM | – | > 10 µM | > 10 µM | > 10 µM | > 10 µM | > 10 µM | > 10 µM | > 10 µM | > 10 µM | > 10 µM | > 10 µM | – | – |
| N/N=C(\C(=O)Nc1c(Cl)cc([N+](=O)[O-])cc1Cl)C(c1cnc2ccc([N+](=O)[O-])cc2n1)[N+](=O)[O-] (stereo unspecified) | > 100 µM | > 100 µM | > 100 µM | > 100 µM | > 100 µM | 53.3 µM | – | > 100 µM | – | – | > 100 µM | > 100 µM | > 100 µM | – | > 100 µM | > 100 µM | – | – | > 100 µM | > 100 µM |
| COc1ccc2[nH]c(C(=O)N3CC(CCl)c4ccc(N)cc43)cc2c1 (stereo unspecified) | 0.494 µM | 0.376 µM | > 100 µM | 1.44 µM | – | 0.0882 µM | > 100 µM | > 100 µM | 10 µM | – | – | > 100 µM | 1.7 µM | 2.28 µM | – | > 44.5 µM | 0.302 µM | 0.545 µM | – | – |
| CC(=O)OC(Cc1cc(C=C(C(F)(F)F)C(F)(F)F)cc(C)n1)(C(F)(F)F)C(F)(F)F | 4.28 µM | 3.54 µM | 3.49 µM | – | 3.08 µM | – | 6.88 µM | 2.32 µM | 5.34 µM | 3.57 µM | 8.21 µM | > 51.9 µM | 5.27 µM | > 100 µM | 3.3 µM | 4.38 µM | > 20.8 µM | 4.65 µM | – | – |
| COC(=O)/C=C\Sc1ccn(/C=C\C(=O)OC)c(=S)n1 | > 100 µM | – | – | > 100 µM | 50.5 µM | 31.4 µM | 46.1 µM | 47.7 µM | 46.5 µM | 26.7 µM | – | – | 36.9 µM | 40.7 µM | 35.6 µM | 41.6 µM | 53.9 µM | 56.7 µM | – | – |
